Reference: PubChem BioAssay AID2742 (NMMLSC, 2010)
Active and inactive are the calls of the source.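 The calls were made as follows: active = fitted half-maximal concentration for changing background-corrected GFP signal at or below a set limit; inactive = the rest.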

assay: modulators of MEP2-GFP levels in yeast, dose response, S. cerevisiae, flow cytometry GFP, MLPCN hits (AID 2742);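 also: GFP tag reports level of MEP2 protein as a downstream target of TOR signalling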; conditions: S. cerevisiae MEP2-GFP strain, flow cytometry fluorescence, 3 h; at 33 µM (top of the series)

SMILES | GFP fluorescence (kMESF), higher = increase
Cn1c(=O)c(C(=O)NNC(=O)c2ccc(Br)cc2)c(O)c2ccccc21 | 3.4 kMESF (inactive)
COc1ccc(/C=C/C(=O)NC(=S)NNC(=O)c2cnccn2)cc1 | 3.67 kMESF (inactive)
O=C1C(Cl)=C(NCCc2ccccc2)C(=O)N1CCc1ccccc1 | 2.91 kMESF (inactive)
CC1=C(C)/C(=N\OS(=O)(=O)c2ccccc2)C=CC1=O | 4.84 kMESF (inactive)
CCOc1ccc(N2C(=O)/C(=C\c3cccs3)C(=O)NC2=S)cc1 | 3.57 kMESF (inactive)
COC(=O)/C(=C/c1c[nH]c2ccccc12)[N+](=O)[O-] | 4.87 kMESF (inactive)
CC(=O)CSc1ncnc2c1cnn2-c1ccccc1 | 2.5 kMESF (inactive)
COc1ccccc1-c1nc2s/c(=C\c3cccs3)c(=O)n2n1 | 5.28 kMESF (inactive)
COc1ccc(CCNC2=C(Cl)C(=O)N(CCc3ccccc3)C2=O)cc1OC | 2.6 kMESF (inactive)
CC(C)[C@@]1(c2ccc(Cl)cc2)ON(c2ccccc2C(F)(F)F)C1=O | 2.87 kMESF (inactive)
Cc1ccccc1N1C(=O)C(Cl)=C(N2CCN(c3ccccc3)CC2)C1=O | 2.9 kMESF (inactive)
Cc1cc(NC(c2ccc(Cl)cc2)c2ccc3cccnc3c2O)no1 (stereo not given) | 4.11 kMESF (inactive)
Cc1ccc(NC(=O)c2cc(N3C(=O)C=CC3=O)ccc2N2CCOCC2)cc1Cl | 1.96 kMESF (inactive)
COc1ccc(N2CCN(C(=O)c3ccccc3)CC2)c([N+](=O)[O-])c1 | 3.33 kMESF (inactive)
CC(Oc1ccc(Br)cc1)C(=O)Nc1nc(-c2ccccn2)cs1 (stereo not given) | 4.68 kMESF (inactive)
CCOC(=O)c1c(C)oc2c1c(C(c1cccnc1)N1CCOCC1)c(O)c1ccccc12 (stereo not given) | 4.43 kMESF (inactive)
CSc1nnc2c3cc(F)ccc3n(C)c2n1 | 2.36 kMESF (inactive)
Cc1ccc(NC(=O)c2ccc(Cl)c(N3C(=O)C=CC3=O)c2)cc1 | 5.91 kMESF (inactive)
Cc1ccccc1[C@@]1(C)ON(c2ccccc2C(F)(F)F)C1=O | 3.31 kMESF (inactive)
Cc1c(N2C(=O)/C(=C\c3ccccc3O)SC2=S)c(=O)n(-c2ccccc2)n1C | 4.71 kMESF (inactive)

SMILES | GFP fluorescence (kMESF), higher = increase
O=C1C(Cl)=C(Nc2ccccc2O)C(=O)N1c1ccccc1 | 4.11 kMESF (inactive)
COc1cc(/C=C2/C(=O)c3cccc([N+](=O)[O-])c3C2=O)c(Br)cc1O | 3.18 kMESF (inactive)
Cc1cc(O)c(C(=O)/C=C/c2c(F)c(F)c(F)c(F)c2F)c(=O)o1 | 0.99 kMESF (inactive)
COc1ccccc1N=Cc1nc(-c2ccccc2)oc1OC(C)=O | 4.52 kMESF (inactive)
O=C(NNC(=S)NC(=O)c1ccco1)c1ccc(F)cc1 | 4.11 kMESF (inactive)
O=C(/C=C/c1cccc(Cl)c1)c1nc2ccccc2[nH]1 | 3.3 kMESF (inactive)
Cc1[nH][nH]c(=O)c1C(c1ccc(-c2ccc(Cl)cc2)o1)c1c(C)[nH][nH]c1=O | 3.72 kMESF (inactive)
CCC(=O)Nc1ccc(NC(=O)c2cc3ccccc3o2)c(OC)c1 | 2.4 kMESF (inactive)
Cc1cc(=O)oc2cc(Oc3ccc([N+](=O)[O-])cc3C(F)(F)F)ccc12 | 2.42 kMESF (inactive)
N#C/C(=C\c1ccccn1)c1nc2ccccc2s1 | 58.7 kMESF (inactive)
Cc1ccc(/C=c2\sc3nc(-c4cccs4)nn3c2=O)o1 | 8.12 kMESF (inactive)
CCCOc1ccc(C(=O)NNC(=S)NC(=O)c2ccccc2)cc1 | 4.61 kMESF (inactive)
COc1ccc2c(c1)c1nnc(SC)nc1n2C | 1.9 kMESF (inactive)
CCc1cc(C(=O)Nc2nc(-c3ccccn3)cs2)sc1C | 6.18 kMESF (inactive)
COC(CNC(=O)c1ccc2c3c(onc13)-c1ccccc1C2=O)OC | -0.77 kMESF (inactive)
O=C(Nc1cccc(-c2csc(Nc3ccccc3)n2)c1)c1ccccc1 | 2.61 kMESF (inactive)
CCN(CC)C(=S)SSC(=S)N(CC)CC | 5.19 kMESF (inactive)
COc1ccccc1N=Nc1ccc(O)c2ncccc12 | 5.16 kMESF (inactive)
Cc1ccc(C(=O)NNC(=S)NC(=O)c2ccco2)cc1 | 4.91 kMESF (inactive)
C=CCOc1ccc(C(=O)/C=C2/C(=O)Nc3ccccc32)cc1 | 3.85 kMESF (inactive)

SMILES | GFP fluorescence (kMESF), higher = increase
Cc1ccc(S(=O)(=O)c2ccc([N+](=O)[O-])cn2)cc1 | 5.31 kMESF (inactive)
Oc1c(CN2CCCCC2)cc(Br)c2cccnc12 | 5.16 kMESF (inactive)
CN1CCN(C(=O)c2cc(COc3c(F)cccc3F)on2)CC1c1ccccc1 (stereo not given) | 5.87 kMESF (inactive)
CCOC(=O)/C(=C\c1cn(C)c2ccccc12)[N+](=O)[O-] | 6.34 kMESF (inactive)
O=[N+]([O-])c1ccc(N=Nc2c(Cl)cc(O)cc2Cl)cc1 | 4.93 kMESF (inactive)
Cc1[nH][nH]c(=O)c1C(c1ccc(-c2ccc(Cl)c(Cl)c2)o1)c1c(C)[nH][nH]c1=O | 4.42 kMESF (inactive)
COc1ccc(/C=C2\C(=O)ON=C2c2ccccc2)cc1 | 4.38 kMESF (inactive)
O=C(COc1c(Br)cc(Br)c2cccnc12)N1CCc2ccccc2C1 | 4.11 kMESF (inactive)
Nc1nc(N)c2nc(CNc3ccc(C(=O)NC(CCC(=O)O)C(=O)O)cc3)cnc2n1 (stereo not given) | 1.62 kMESF (inactive)
Cc1cc(S(=O)(=O)ON2C(=O)c3ccccc3C2=O)ccc1F | 4.9 kMESF (inactive)
O=C(CCc1ccccc1)NNC(=S)NC(=O)c1ccccc1 | 5.56 kMESF (inactive)
CC1=CC(=O)C(C(C)C)=C/C1=N/OS(=O)(=O)c1ccccc1 | 3.47 kMESF (inactive)
O=C(Sc1cccc2cccnc12)c1ccccc1Br | 4.93 kMESF (inactive)
O=C(NNC(=S)NC(=O)C12CC3CC(CC(C3)C1)C2)c1ccncc1 | 6.72 kMESF (inactive)
O=C(OCn1ncc(Br)c(Br)c1=O)c1ccccc1Cl | 4.8 kMESF (inactive)
Cc1cc(O)c(C(=O)/C=C/c2ccc(Cl)cc2)c(=O)o1 | 4.13 kMESF (inactive)
Cc1ccc(C(=O)O/N=C(\N)Cc2cccs2)c(Cl)c1 | 4.31 kMESF (inactive)
O=C(/C=C/c1ccnc2ccccc12)c1cccs1 | 4.23 kMESF (inactive)
C#CCOCCOCCOCCNc1nc(N2CCN(C(=O)CCCCCCCCCCNC(=O)[C@H](CCCCN)n3cc(CCO)nn3)CC2)nc(N2CCN(C(=O)CCCCCCCCCCNC(=O)[C@H](CCCN=C(N)N)n3cc(C[C@@H](C)CC)nn3)CC2)n1 | 3.54 kMESF (inactive)
N/C(Cc1ccc(Cl)cc1Cl)=N\OC(=O)c1ccccc1 | 2.82 kMESF (inactive)
